Consider 32 molecules from the supplement of paper PMC3493320.

Bounds are passed on as bounds.

The test system of this assay is NCI-H295R. Kind of assay: IC50 (antiproliferative, ATP content). The following applies: 48 h. The gist of the method: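 Serum-free ITS-supplemented DMEM was used to seed 1500 adrenocortical carcinoma cells per well in 1536-well plates, which were cultured overnight. Eight final concentrations of each library compound, from 0.6 nM to 46 µM, were added by pin transfer, followed by 48 h at 37 °C in 5% CO2 and a CellTiter-Glo ATP read after 20 min at room temperature. Luminescence was set against vehicle and positive-control wells, and the IC50 was obtained by logistic curve fitting. Any compound with no concentration response was entered as above the top dose.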
The IC50 is the concentration that gives 50% inhibition. The low end stands for inhibition by little substance, the high end for a need for much substance. Turning to `CC(C)(C)NCC(O)COc1ccc(NC(=O)NC2CCCCC2)cc1` (configuration not stated), the IC50 was greater than 46 µM.

The molecule `NC(=O)N1c2ccccc2CC(=O)c2ccccc21` yielded an IC50 greater than 46 µM. As for `CC(CNC1CCCCC1)OC(=O)c1ccccc1.Cl` (configuration not stated), the figure is greater than 46 µM; as for `O=C1CN=C(c2ccccc2)c2cc(Cl)ccc2N1CC1CC1`, greater than 46 µM. As for `CC[C@H]1OC(=O)[C@H](C)[C@@H](O[C@H]2C[C@@](C)(OC)[C@@H](O)[C@H](C)O2)C(C)[C@@H](O[C@@H]2O[C@H](C)C[C@H](N(C)C)[C@H]2O)[C@](C)(OC)C[C@@H](C)C(=O)[C@H](C)[C@@H](O)[C@]1(C)O` (some centres not stated), the figure is greater than 46 µM; as for `CCOC(=O)OC(C)OC1=C(C(=O)Nc2ccccn2)N(C)S(=O)(=O)c2ccccc21` (configuration not stated), greater than 46 µM; as for `CC[C@H]1OC(=O)[C@H](C)[C@@H](O[C@H]2C[C@@](C)(OC)[C@@H](O)[C@H](C)O2)[C@H](C)[C@@H](O[C@@H]2O[C@H](C)C[C@H](N(C)C)[C@H]2O)[C@](C)(O)C[C@@H](C)CN(C)[C@H](C)[C@@H](O)[C@]1(C)O`, greater than 46 µM. With `CNC(=O)Oc1cccc2ccccc12` the figure was greater than 46 µM; with `O=C3N1/C(=C(/C)CS[C@@H]1[C@@H]3NC(=O)[C@H](N)c2ccccc2)C(O)=O`, greater than 46 µM.

In turn, `FC(F)(F)C(F)(F)C(F)(F)C(F)(F)C(F)(F)C(F)(F)F` yielded an IC50 greater than 46 µM.

`Oc1ccc2[nH]cc(CCCCN3CC=C(c4ccccc4)CC3)c2c1`: the half-inhibitory concentration (IC50) was greater than 46 µM.

`O=C(O)c1ccccc1O.Oc1cccc2cccnc12` came in with an IC50 greater than 46 µM. Molecule `COc1ccc(C(Cl)=C(c2ccc(OC)cc2)c2ccc(OC)cc2)cc1` came in with an IC50 greater than 46 µM. With `CN1c2c(O)nc(N)nc2NCC1CNc1ccc(C(=O)NC(CCC(=O)[O-])C(=O)[O-])cc1.[Na+].[Na+]` (configuration not stated) the figure was greater than 46 µM; with `CC(C)(C)C(=O)Oc1ccc(S(=O)(=O)Nc2ccccc2C(=O)NCC(=O)[O-])cc1.O.O.O.O.[Na+]`, greater than 46 µM; with `O=C(O)C(Cl)(Cl)Cl`, greater than 46 µM.

Molecule `Nc1cc(N2CCCCC2)nc(N)[n+]1[O-]` gave an IC50 greater than 46 µM. With `COc1nc(C)nc(Cl)c1NC1=NCCN1`, the concentration for half-maximal inhibition (IC50) is greater than 46 µM. As for `CCOC(=O)[C@H](CCc1ccccc1)N[C@@H](C)C(=O)N1[C@H](C(=O)O)C[C@@H]2CCC[C@@H]21`, the figure is greater than 46 µM; as for `O=C(c1ccc(F)cc1)C1CCN(CCn2c(=O)[nH]c3ccccc3c2=O)CC1`, greater than 46 µM; as for `CN1CCC(OC(c2ccccc2)c2ccccc2)CC1.Cl`, greater than 46 µM. Regarding `CCCCCCCCCCCCCCCC[N+](C)(C)CCN(Cc1ccc(OC)cc1)c1ncccn1.[Br-]`, the half-inhibitory concentration (IC50) was greater than 46 µM. As for `CCOc1ccc(S(=O)(=O)O)c2cccnc12`, the figure is greater than 46 µM; as for `CN(C)CCCOc1nn(Cc2ccccc2)c2ccccc12.Cl`, greater than 46 µM. With `CC1=C(C)C(=O)C(C(CCCCCC(=O)O)c2ccccc2)=C(C)C1=O` (configuration not stated) the figure was greater than 46 µM. As for `OC1=CC(\C=C(C#N)/C#N)=CC(O)=C1O`, the figure is greater than 46 µM; as for `CCCCCCCC/C=C\CCCCCCCCN`, greater than 46 µM. `CO` showed an IC50 greater than 46 µM. As for `O=C2N1[C@]([C@@]([H])2NC(CC3=CC=CC=C3)=O)([H])SC(C)(C)[C@@H]1[C@@](O)=O.O=C5N4[C@]([C@@]([H])5NC(CC6=CC=CC=C6)=O)([H])SC(C)(C)[C@@H]4[C@@](O)=O.C7(CNCCNCC8=CC=CC=C8)=CC=CC=C7`, the figure is greater than 46 µM.

Consider `Cc1c(C)c2c(c(C)c1OC(=O)c1cccnc1)CC[C@@](C)(CCC[C@H](C)CCC[C@H](C)CCCC(C)C)O2`, for which the IC50 is greater than 46 µM. As for `CCCCCCCCCCCCCCCC(=O)OC(C)C`, the figure is greater than 46 µM; as for `CCCCCCCCCCCCCCCC(=O)OC[C@H](COP(=O)([O-])OCC[N+](C)(C)C)OC(=O)CCCCCCCCCCCCCCC`, greater than 46 µM.
